Data taken from article PMC3694096, “Development of Novel In Vivo Chemical Probes to Address CNS Protein Kinase Involvement in Synaptic Dysfunction” (PLoS ONE, 2013).

Tests used:
[1] = target: casein kinase 1δ (CK1δ), p38βMAPK and other kinases; conditions: cited from earlier work
[2] = Dose escalation adverse event screen (SHIRPA based); assay type: in vivo; conditions: highest dose at which no adverse events are observed in dose escalation studies, mice
Description: Novel compounds were screened in vivo using a standard dose escalation screen in mice coupled with clinical observation and testing based on the SHIRPA mouse phenotype assay paradigm. To obtain insight into the potential for off-target activity with the largest known family of small molecule drug targets, G-protein coupled receptors (GPCRs), a cell-based functional screen of the final title compounds was done. The Millipore® GPCR Profiler screen employs the ChemiScreen GPCR stable cell line technology used for real-time calcium flux FLIPR assays on a panel of 158 GPCRs to detect both antagonists and agonists. The NCBI Entrez identifier for each GPCR is provided at the vendor site (www.millipore.com). Follow-up validation of any initial hits as being true positives or negatives was done as described above for protein kinases by testing the concentration dependence of any cellular effects. No validated hits were detected.

[3] = system: p38MAPKs; design: method as in PMID 17079143; conditions: cited from earlier work

C[S+]([O-])c1ccc(-c2nc(-c3ccncc3)c(-c3ccc(F)cc3)[nH]2)cc1 (centres unmarked) [SB203580]
kinase cross-over [1]: inhibit casein kinase 1δ (CK1δ), p38βMAPK and other kinases

CN1CCN(c2cc(-c3ccncc3)c(-c3ccccc3)nn2)CC1 [MW066]
Dose Escalating Adverse Event Screen / Adverse Pharm Dose [2]: > 200 mg/kg

CCCN(C)c1cc(-c2ccncc2)c(-c2ccccc2)nn1 [MW207]
Dose Escalating Adverse Event Screen / Adverse Pharm Dose [2]: > 200 mg/kg

c1ccc(-c2nnc(N3CCN(c4ncccn4)CC3)cc2-c2ccncc2)cc1 [MW069a]
Dose Escalating Adverse Event Screen / Adverse Pharm Dose [2]: 60 mg/kg

CCN(CC)c1cc(-c2ccncc2)c(-c2ccccc2)nn1 [MW177]
Dose Escalating Adverse Event Screen / Adverse Pharm Dose [2]: > 200 mg/kg

COc1nccc(-c2c(-c3ccc(F)cc3)ncn2C2CCC(O)CC2)n1 (centres unmarked) [SB239063]
kinase cross-over [1]: inhibit casein kinase 1δ (CK1δ), p38βMAPK and other kinases

c1ccc(-c2cc(-c3ccncc3)c(N3CCN(c4ncccn4)CC3)nn2)cc1 [MW01-6-189WH]
interaction with p38MAPKs [3]: does not interact with p38MAPKs

CN(C)c1cc(-c2ccncc2)c(-c2ccccc2)nn1 [MW105, N, N-dimethyl-6-phenyl-5-(pyridin-4-yl)pyridazin-3-amine]
Dose Escalating Adverse Event Screen / Adverse Pharm Dose [2]: > 200 mg/kg
